Tested on: H9P33, H9P44 and H9P48 cells
Test: Microarray analysis of definitive endoderm on MEFs vs MATRIGEL +/- Wnt-3A (Table VI)
Details: DE treatment in low serum, on MATRIGEL
Description: Controls for each group included cells plated on […]-coated dishes and cultured in MEF-conditioned medium or cells plated on MEFs and cultured in ES medium. All groups contained three biological replicates and each biological replicate was repeated on two separate gene chips.
Sample preparation, hybridization, and image analysis were performed according to the Affymetrix Human Genome U133 Plus 2.0 Array. Following normalization and a log transformation, data analysis was performed using OmniViz® software (MA) and […] (VizXLabs, WA). Significant differences in gene expression between the samples were evaluated using analysis of variance and an F-test with adjusted P-value (Benjamini and Hochberg correction) of ≤0.05. Only genes with a present call in at least one group were included in the analysis.

Substance: Activin A: a member of the TGFβ superfamily; growth factor (R&D Systems) used to differentiate human embryonic stem cells
- mean normalized intensity (log format), 6-phosphofructo-2-kinasefructose-2,6-biphosphatase 4: −0.2429
- mean normalized intensity (log format), Cluster Incl. AB028021: Homo sapiens HNF-3beta mRNA for hepatocyte nuclear factor-3 beta: −1.5339
- mean normalized intensity (log format), ESTs: −3.574
- mean normalized intensity (log format), ESTs, Highly similar to IHH_HUMAN INDIAN HEDGEHOG PROTEIN PRECURSOR (H. sapiens): −0.654
- mean normalized intensity (log format), ESTs, Moderately similar to JE0284 Mm-1 cell derived transplantability-associated protein 1b (H. sapiens): −2.377
- mean normalized intensity (log format), ESTs, Weakly similar to FCE2 MOUSE LOW AFFINITY IMMUNOGLOBULIN EPSILON FC RECEPTOR (M. musculus): 0.4942
- mean normalized intensity (log format), ESTs, Weakly similar to the 331st table hypothetical protein KIAA0555 (H. sapiens): −1.574
- mean normalized intensity (log format), G protein-coupled receptor: 1.507
- mean normalized intensity (log format), G protein-coupled receptor 49: 0.2655
- mean normalized intensity (log format), Homo sapiens HNF-3beta mRNA for hepatocyte nuclear factor-3 beta: −2.718
- mean normalized intensity (log format), Homo sapiens KIAA0878 protein (KIAA0878), mRNA: 2.0265
- mean normalized intensity (log format), Homo sapiens Kell blood group (KEL), mRNA: −2.205
- mean normalized intensity (log format), Homo sapiens MLL septin-like fusion (MSF), mRNA: −3.292
- mean normalized intensity (log format), Homo sapiens Mix-like homeobox protein 1 (MILD1) mRNA: −1.546
- mean normalized intensity (log format), Homo sapiens Rho GTPase activating protein 6 (ARHGAP6), transcript variant 2, mRNA: −1.104
- mean normalized intensity (log format), Homo sapiens TBX3-iso protein (TBX3-iso), mRNA: −2.346
- mean normalized intensity (log format), Homo sapiens angiopoietin 2 (ANGPT2), mRNA: −2.93
- mean normalized intensity (log format), Homo sapiens ankyrin-like with transmembrane domains 1 (ANKTM1), mRNA: −1.109
- mean normalized intensity (log format), Homo sapiens apolipoprotein A-I (APOA1), mRNA: −1.471
- mean normalized intensity (log format), Homo sapiens apolipoprotein A-II (APOA2), mRNA: −1.033
- mean normalized intensity (log format), Homo sapiens arylsulfatase E (chondrodysplasia punctata 1) (ARSE), mRNA: 0.283
- mean normalized intensity (log format), Homo sapiens atrophin-1 interacting protein 1; activin receptor interacting protein 1 (KIAA0705), mRNA: −4.308
- mean normalized intensity (log format), Homo sapiens beta-site APP cleaving enzyme (BACE) mRNA: −2.0354
- mean normalized intensity (log format), Homo sapiens cDNA FLJ11550 fis, clone HEMBA1002970: −1.222
- mean normalized intensity (log format), Homo sapiens cDNA FLJ12993 fis, clone NT2RP3000197: 0.1473
- mean normalized intensity (log format), Homo sapiens cDNA FLJ13221 fis, clone NT2RP4002075: 0.3557
- mean normalized intensity (log format), Homo sapiens cardiac ventricular troponin C mRNA: −0.5497
- mean normalized intensity (log format), Homo sapiens cartilage linking protein 1 (CRTL1), mRNA: −1.315
- mean normalized intensity (log format), Homo sapiens cell adhesion molecule with homology to L1CAM (close homologue of L1) (CHL1), mRNA: −0.5412
- mean normalized intensity (log format), Homo sapiens chromosome 19, cosmid R31181: −0.2589
- mean normalized intensity (log format), Homo sapiens clone 23736 mRNA sequence: −0.04718
- mean normalized intensity (log format), Homo sapiens cryptic mRNA, complete cds: 0.1049
- mean normalized intensity (log format), Homo sapiens cystatin S (CST4), mRNA: 0.9245
- mean normalized intensity (log format), Homo sapiens cystatin SA (CST2), mRNA: −0.1022
- mean normalized intensity (log format), Homo sapiens cystatin SN (CST1), mRNA: 0.07293
- mean normalized intensity (log format), Homo sapiens cytidine deaminase (CDA), mRNA: −3.891
- mean normalized intensity (log format), Homo sapiens dual specificity phosphatase 4 (DUSP4), mRNA: 0.9539
- mean normalized intensity (log format), Homo sapiens fibroblast growth factor 8 (androgen-induced) (FGF8), mRNA: −4.328
- mean normalized intensity (log format), Homo sapiens fibroblast growth factor 17 (FGF17), mRNA: −0.8946
- mean normalized intensity (log format), Homo sapiens frizzled-related protein (FRZB), mRNA: 0.565
- mean normalized intensity (log format), Homo sapiens gastrin-releasing peptide (GRP), mRNA: −2.741
- mean normalized intensity (log format), Homo sapiens glycophorin B (includes Ss blood group) (GYPB), mRNA: −0.9473
- mean normalized intensity (log format), Homo sapiens glycophorin E (GYPE), mRNA: −2.016
- mean normalized intensity (log format), Homo sapiens glycophorin Erik STA (GPErik) gene: −1.194
- mean normalized intensity (log format), Homo sapiens growth differentiation factor 3 (GDF3), mRNA: 1.673
- mean normalized intensity (log format), Homo sapiens haptoglobin (HP), mRNA: −1.101
- mean normalized intensity (log format), Homo sapiens haptoglobin-related protein (HPR), mRNA: −2.6068
- mean normalized intensity (log format), Homo sapiens homeobox protein goosecoid mRNA, complete cds: −4.42
- mean normalized intensity (log format), Homo sapiens hypothetical protein FLJ10718 (FLJ10718), mRNA: 2.605
- mean normalized intensity (log format), Homo sapiens hypothetical protein FLJ10970 (FLJ10970), mRNA: −0.432
- mean normalized intensity (log format), Homo sapiens hypothetical protein FLJ11316 (FLJ11316), mRNA: −0.9047
- mean normalized intensity (log format), Homo sapiens hypothetical protein FLJ22252 similar to SRY-box containing gene 17 (FLJ22252), mRNA: 1.368
- mean normalized intensity (log format), Homo sapiens hypothetical protein FLJ23403 (FLJ23403), mRNA: −1.485
- mean normalized intensity (log format), Homo sapiens lumican (LUM), mRNA: −4.057
- mean normalized intensity (log format), Homo sapiens mRNA for GATA-6, complete cds: 2.219
- mean normalized intensity (log format), Homo sapiens mRNA for KIAA1409 protein, partial cds: 0.3683
- mean normalized intensity (log format), Homo sapiens mRNA; cDNA DKFZp434D0818 (from clone DKFZp434D0818): −2.634
- mean normalized intensity (log format), Homo sapiens mRNA; cDNA DKFZp586J0624 (from clone DKFZp586J0624): −0.8352
- mean normalized intensity (log format), Homo sapiens matrix metalloproteinase 14 (membrane-inserted) (MMP14), mRNA: −0.7235
- mean normalized intensity (log format), Homo sapiens phorbolin-like protein MDS019 (MDS019), mRNA: −1.119
- mean normalized intensity (log format), Homo sapiens presenilin stabilization factor b (PSF) mRNA: −0.8617
- mean normalized intensity (log format), Homo sapiens reserved (KCNK12), mRNA: −0.4687
- mean normalized intensity (log format), Homo sapiens retinoid X receptor, gamma (RXRG), mRNA: −2.375
- mean normalized intensity (log format), Homo sapiens sema domain, immunoglobulin domain (Ig), short basic domain, secreted, (semaphorin) 3E (SEMA3E), mRNA: −0.786
- mean normalized intensity (log format), Homo sapiens sema domain, seven thrombospondin repeats, (semaphorin) 5A (SEMA5A), mRNA: −1.533
- mean normalized intensity (log format), Homo sapiens solute carrier family 16 (monocarboxylic acid transporters), member 3 (SLC16A3), mRNA: 0.7103
- mean normalized intensity (log format), Homo sapiens solute carrier family 21 (prostaglandin transporter), member 2 (SLC21A2), mRNA: 0.7114
- mean normalized intensity (log format), Homo sapiens type VI collagen alpha 2 chain precursor (COL6A2) mRNA: 1.7011
- mean normalized intensity (log format), Homo sapiens, alpha-1 (VI) collagen: −3.662
- mean normalized intensity (log format), Homo sapiens, clone MGC: 4655, mRNA: 2.3772
- mean normalized intensity (log format), Human (clone 8B1) Br-cadherin mRNA: −2.179
